Data as given in patent US12473594B2, “Chemical tagging-based method for modified nucleoside sequencing, enrichment, and measurement” (PEKING UNIVERSITY, priority 2019, dated 2025).

Assay: Half-life of DTT-6-A and hm^6A in aqueous solutions with different pH values
Assay type: physicochemical
Settings: aqueous solution, neutral environment
Experimental: In order to study whether the stability of product (DTT-6-A) produced by the reaction of hm^6A and DTT was improved compared with hm^6A, half-life of DTT-6-A in aqueous solutions with different pH values was measured.

OCNc1ncnc2c1ncn2[C@@H]1O[C@H](CO)[C@@H](O)[C@H]1O [hm^6A, N^6-hydroxymethyl adenine nucleoside]
half-life: 2 h
